Test results: ChEMBL document CHEMBL1201862, “PubChem BioAssay data set” (2004)
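Grown in 96-well plates, cells were treated for 48 hours with each compound at five concentrations. Insufficient inhibition: endpoint recorded as highest concentration tested. GI50 marks 50% less growth.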 Active and inactive are the calls of the source. Rule as the data show it: active = GI50 up to about 1.1 µM and inactive = higher.

Legend:
Assay in all cases: DTP human tumour cell line panel, 48 h
DU-145 = system: DU-145
SR = system: SR
OVCAR-8 = system: OVCAR-8
UACC-62 = system: UACC-62
UACC-257 = system: UACC-257
OVCAR-3 = system: OVCAR-3
CCRF-CEM = system: CCRF-CEM
ACHN = system: ACHN
SK-MEL-5 = system: SK-MEL-5
PC-3 = system: PC-3
MDA-N = system: MDA-N
MDA-MB-435 = system: MDA-MB-435
MDA-MB-231 = system: MDA-MB-231
NCI-H460 = system: NCI-H460
HOP-92 = system: HOP-92
LOX IMVI = system: LOX IMVI
A549 = system: A549
Malme-3M = system: Malme-3M
SK-OV-3 = system: SK-OV-3
SNB-75 = system: SNB-75

Structure (SMILES) | GI50 (DU-145) | GI50 (SR) | GI50 (OVCAR-8) | GI50 (UACC-62) | GI50 (UACC-257) | GI50 (OVCAR-3) | GI50 (CCRF-CEM) | GI50 (ACHN) | GI50 (SK-MEL-5) | GI50 (PC-3) | GI50 (MDA-N) | GI50 (MDA-MB-435) | GI50 (MDA-MB-231) | GI50 (NCI-H460) | GI50 (HOP-92) | GI50 (LOX IMVI) | GI50 (A549) | GI50 (Malme-3M) | GI50 (SK-OV-3) | GI50 (SNB-75)
COc1ccc2nccc(SCC(=O)O)c2c1 | > 100 µM (inactive) | > 100 µM (inactive) | > 100 µM (inactive) | > 100 µM (inactive) | > 100 µM (inactive) | > 100 µM (inactive) | > 100 µM (inactive) | > 100 µM (inactive) | > 100 µM (inactive) | > 100 µM (inactive) | > 100 µM (inactive) | > 100 µM (inactive) | > 100 µM (inactive) | > 100 µM (inactive) | > 100 µM (inactive) | > 100 µM (inactive) | > 100 µM (inactive) |  |  | 
COc1cc(/C=C/c2ccnc3ccccc23)cc(OC)c1OC | 4.84 µM (inactive) | 1.35 µM (inactive) |  | 3.17 µM (inactive) | 5.27 µM (inactive) | 3.3 µM (inactive) | 2.09 µM (inactive) | 7.23 µM (inactive) | 2.45 µM (inactive) | 9.29 µM (inactive) | 0.351 µM (active) | 0.413 µM (active) | 2.21 µM (inactive) | 3.77 µM (inactive) |  | 4.63 µM (inactive) | 4.52 µM (inactive) | 2.98 µM (inactive) | 4.19 µM (inactive) | 
CC1=C(C)SC(=C2Sc3c(n(C)c(=O)n(C)c3=O)S2)S1 | > 100 µM (inactive) |  | 23.6 µM (inactive) | 44.7 µM (inactive) | > 100 µM (inactive) | 71.3 µM (inactive) | > 100 µM (inactive) | 45 µM (inactive) | 33.7 µM (inactive) | > 100 µM (inactive) | 47.6 µM (inactive) | 98.6 µM (inactive) | 22.7 µM (inactive) | 30.5 µM (inactive) | 53.7 µM (inactive) | 48.5 µM (inactive) | 42.5 µM (inactive) | > 100 µM (inactive) | 15.5 µM (inactive) | 20.7 µM (inactive)
O=C1/C(=C/c2ccccc2S)N=C(c2ccccc2)N1c1nc2ccc(Sc3ccccc3)cc2[nH]1 | 34.9 µM (inactive) |  | 34.5 µM (inactive) | 21.9 µM (inactive) | 23.6 µM (inactive) | 21.6 µM (inactive) | 21 µM (inactive) | 50.5 µM (inactive) | 18.4 µM (inactive) | 32.2 µM (inactive) | 14.7 µM (inactive) | 12.4 µM (inactive) | 26.1 µM (inactive) | 21.9 µM (inactive) | 81.3 µM (inactive) | 34 µM (inactive) | 36.6 µM (inactive) | 37.8 µM (inactive) | 43.1 µM (inactive) | 22.3 µM (inactive)
Cc1cc(-c2ccc(Cl)cc2)c(C#N)c(=S)n1C1OC(CO)C(O)C(O)C1O (centres undefined) | > 100 µM (inactive) | > 100 µM (inactive) | > 100 µM (inactive) | > 100 µM (inactive) | > 100 µM (inactive) | > 100 µM (inactive) | > 100 µM (inactive) | > 100 µM (inactive) | > 100 µM (inactive) | > 100 µM (inactive) | > 100 µM (inactive) | > 100 µM (inactive) | > 100 µM (inactive) | > 100 µM (inactive) |  | > 100 µM (inactive) | > 100 µM (inactive) | > 100 µM (inactive) | > 100 µM (inactive) | 20.1 µM (inactive)
Cc1ccc2c(c1)NC(c1ccc(C(=O)O)cc1)c1cccn1-2 (centres undefined) | 26 µM (inactive) | > 100 µM (inactive) |  | 42.8 µM (inactive) | 80.4 µM (inactive) | 47.3 µM (inactive) | > 100 µM (inactive) | 19.3 µM (inactive) | > 100 µM (inactive) | 32.7 µM (inactive) | 75.2 µM (inactive) | 5.16 µM (inactive) | 37.2 µM (inactive) | 66.5 µM (inactive) |  | > 100 µM (inactive) | 36.3 µM (inactive) |  | 22.4 µM (inactive) | 18.7 µM (inactive)
COC(=O)C1=C(OC(=O)c2ccccc2)C(C(=O)OC)[C@@]2(O)[C@@H](C(=O)OC)[C@H](C)C[C@@H]1[C@@H]2C(=O)OC (some centres undefined) | 59.3 µM (inactive) | 21.5 µM (inactive) | 26.4 µM (inactive) | 39.7 µM (inactive) | 33.3 µM (inactive) | 46.2 µM (inactive) | 8.89 µM (inactive) | 31.6 µM (inactive) | 31.9 µM (inactive) | 37.2 µM (inactive) | 21.4 µM (inactive) | 25.3 µM (inactive) | 37.7 µM (inactive) | 25.3 µM (inactive) |  | 32.1 µM (inactive) | 19.5 µM (inactive) | 26.9 µM (inactive) | 29.5 µM (inactive) | 22.9 µM (inactive)
O=C(NCCNCCO)N/N=C/c1ccc([N+](=O)[O-])cc1 | > 100 µM (inactive) | > 100 µM (inactive) | > 100 µM (inactive) | > 100 µM (inactive) | > 100 µM (inactive) | > 100 µM (inactive) | > 100 µM (inactive) | > 100 µM (inactive) | > 100 µM (inactive) | > 100 µM (inactive) | 61.4 µM (inactive) | > 100 µM (inactive) | > 100 µM (inactive) | > 100 µM (inactive) |  |  | > 100 µM (inactive) | 43.8 µM (inactive) | > 100 µM (inactive) | 21.7 µM (inactive)
Oc1ccccc1CNCc1nc2ccccc2[nH]1 | > 100 µM (inactive) | 50 µM (inactive) | 29 µM (inactive) | 78.7 µM (inactive) | > 100 µM (inactive) | 33.7 µM (inactive) | 29 µM (inactive) | 12.9 µM (inactive) | 22.4 µM (inactive) | 71.9 µM (inactive) | > 100 µM (inactive) | > 100 µM (inactive) | 71.9 µM (inactive) |  | 73.5 µM (inactive) | 57 µM (inactive) | > 100 µM (inactive) |  |  | 57.4 µM (inactive)
Oc1ccc(-c2nc(-c3cccnc3)c(-c3ccc(Cl)cc3)[nH]2)cc1O | 22 µM (inactive) | > 100 µM (inactive) | 11.9 µM (inactive) | 11.2 µM (inactive) | 15.1 µM (inactive) | 3.43 µM (inactive) | 4.48 µM (inactive) | 9.95 µM (inactive) | 13 µM (inactive) | 9.2 µM (inactive) | 11.7 µM (inactive) | 13.8 µM (inactive) | 17.3 µM (inactive) |  |  | 9.82 µM (inactive) | 20.1 µM (inactive) | 14 µM (inactive) | 12.4 µM (inactive) | 6.05 µM (inactive)
C=CCCCC1(C)CCCCNC1=O (centres undefined) | > 10 µM (inactive) | > 10 µM (inactive) | > 10 µM (inactive) | > 10 µM (inactive) | > 10 µM (inactive) | > 10 µM (inactive) | > 10 µM (inactive) | > 10 µM (inactive) | > 10 µM (inactive) | > 10 µM (inactive) | > 10 µM (inactive) | > 10 µM (inactive) | > 10 µM (inactive) | > 10 µM (inactive) |  | > 10 µM (inactive) | > 10 µM (inactive) | > 10 µM (inactive) | > 10 µM (inactive) | > 10 µM (inactive)
CCOC(=O)C(C)NC(=O)C(C)NC(=O)C(C)NC(=O)C(C)NC(=O)C(C)NC(=O)OCc1ccccc1 (centres undefined) | > 100 µM (inactive) | > 100 µM (inactive) | > 100 µM (inactive) | > 100 µM (inactive) | > 100 µM (inactive) | > 100 µM (inactive) | > 100 µM (inactive) | > 100 µM (inactive) | > 100 µM (inactive) | > 100 µM (inactive) | > 100 µM (inactive) | > 100 µM (inactive) | > 100 µM (inactive) | > 100 µM (inactive) |  | > 100 µM (inactive) | > 100 µM (inactive) | > 100 µM (inactive) | > 100 µM (inactive) | 78.3 µM (inactive)
CC1(C)C2CCC(=O)C1C(OCc1ccccc1)C2 (centres undefined) | > 100 µM (inactive) | 29.8 µM (inactive) | > 100 µM (inactive) | > 100 µM (inactive) | 85.7 µM (inactive) | > 100 µM (inactive) | > 100 µM (inactive) | > 100 µM (inactive) | 17.4 µM (inactive) | > 100 µM (inactive) | > 100 µM (inactive) | > 100 µM (inactive) | > 100 µM (inactive) | > 100 µM (inactive) |  | > 100 µM (inactive) | 21.9 µM (inactive) | > 100 µM (inactive) | > 100 µM (inactive) | > 100 µM (inactive)
COC([C@@H](OC(=O)c1ccccc1)[C@H](OC(=O)c1ccccc1)C(O)COC(=O)c1ccccc1)n1cc(C)c(=O)[nH]c1=O (some centres undefined) | 44.5 µM (inactive) | 29.7 µM (inactive) | 39.1 µM (inactive) | 17.3 µM (inactive) | 34.2 µM (inactive) | 20.3 µM (inactive) |  | 31.6 µM (inactive) | 11.7 µM (inactive) | 4.83 µM (inactive) | 30.9 µM (inactive) | 20 µM (inactive) | 40.6 µM (inactive) | 27.3 µM (inactive) |  | 15.1 µM (inactive) | 16.4 µM (inactive) | 23.6 µM (inactive) | 40.6 µM (inactive) | 22.5 µM (inactive)
O=C1c2scc(-c3ccc(F)cc3)c2-n2cccc21 | 88.1 µM (inactive) | 11 µM (inactive) | 57.7 µM (inactive) | 18.6 µM (inactive) | 71 µM (inactive) | 54.1 µM (inactive) | 28.6 µM (inactive) | 39.7 µM (inactive) | 22.4 µM (inactive) | 29.9 µM (inactive) | 8.67 µM (inactive) | 11.1 µM (inactive) | 24.7 µM (inactive) | 28 µM (inactive) |  | 24.6 µM (inactive) | 56.5 µM (inactive) | 52.1 µM (inactive) | 40.6 µM (inactive) | 6.4 µM (inactive)
